Columns and labels:
human EAAT3 = biological target: T1, human EAAT3 (Homo sapiens, UniProt P43005); assay: FLIPR Membrane Potential (FMP) assay, antagonist potency at human EAAT3; type: cell-based; settings: HEK-293 cells stably expressing human EAAT3; L-glutamate as agonist at EC80; antagonist applied 15 min before agonist; Kb by Cheng-Prusoff from IC50
T1 construct: expressed in transfected cells
T1 sequence (P43005 1-524): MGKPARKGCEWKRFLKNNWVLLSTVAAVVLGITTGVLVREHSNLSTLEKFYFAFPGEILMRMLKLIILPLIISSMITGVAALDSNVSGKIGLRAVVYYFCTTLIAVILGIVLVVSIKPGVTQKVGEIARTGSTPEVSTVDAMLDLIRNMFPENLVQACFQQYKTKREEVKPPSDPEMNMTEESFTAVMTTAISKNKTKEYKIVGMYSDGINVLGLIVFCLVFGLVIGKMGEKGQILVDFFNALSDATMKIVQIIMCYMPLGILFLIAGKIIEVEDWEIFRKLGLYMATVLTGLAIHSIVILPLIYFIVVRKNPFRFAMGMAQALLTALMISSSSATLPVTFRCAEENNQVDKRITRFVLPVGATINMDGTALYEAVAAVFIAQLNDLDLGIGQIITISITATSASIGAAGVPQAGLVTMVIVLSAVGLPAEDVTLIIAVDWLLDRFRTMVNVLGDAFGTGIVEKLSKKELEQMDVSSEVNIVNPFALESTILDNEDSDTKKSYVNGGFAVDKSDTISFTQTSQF
Method: The FLIPR Membrane Potential (FMP) Assay
HEK-293 cells stably expressing human EAAT3 were seeded at 55 000 cells/well in growth medium (DMEM glutamate free (Invitrogen 11960-044), 1% Pen Strep (10 ml/1 GIBCO BRL N°15140-023), 10% FCS non dialysed heat inactivated, 5 mg/l puromycin) in poly-D-lysine treated 96-well black microtiter plates with clear-bottom. After 24 h, the growth medium was removed and 100 μl/well of Krebs buffer (140 mM NaCl, 4.7 mM KCl, 2.5 mM CaCl2, 1.2 mM MgCl2, 11 mM HEPES, 10 mM D-glucose, pH=7.4) added. The cells were then loaded by adding 100 μl/well FMP assay dye (FLIPR Membrane Potential assay reagent, Molecular Devices). The 96-well plates were then incubated at 37° C. for 1 h. The depolarization of the cells will cause more dye to enter in the cells, where it will bind to intracellular proteins and lipids and cause an increase in the fluorescence signal. Antagonist potency at human EAAT3 was determined by using L-glutamate as agonist at a concentration which gives 80% of the maximum response. The antagonists were applied 15 min before the application of the agonist L-glutamate. The assays were performed at room temperature and measurements done by using a Fluorometric Imaging Plate Reader (FLIPR, Molecular Devices) and filter #2. Responses were measured as peak increase in fluorescence minus basal (i.e. fluorescence without addition of L-glutamate). Kb was determined using the Cheng-Prusoff equation Kb=IC50/[1+(A/EC50)], where IC50 is the concentration of the antagonist producing 50% inhibition, A is the concentration of the agonist against which the IC50 is being determined (at EC80) and EC50 is the concentration of the agonist producing 50% […].

With `CC(C)c1nccn1-c1cc(C(=O)NC2(C)CCS(=O)(=O)C2)cc(-c2ccc(Cl)cc2)c1` (racemic) [Example 38, (RS)-3-(4-Chlorophenyl)-N-(3-methyl-1,1-dioxothiolan-3-yl)-5-(2-propan-2-ylimidazol-1-yl)-benzamide] the Kb (human EAAT3) was 220 nM and the melting point was 112 °C.

`CC1(NC(=O)c2cc(-c3ccc(Cl)cc3)cc(-n3ccnc3C3CC3)c2)CCS(=O)(=O)C1` (racemic) [Example 39, (RS)-3-(4-chlorophenyl)-5-(2-cyclopropylimidazol-1-yl)-N-(3-methyl-1,1-dioxothiolan-3-yl)-benzamide] gave a Kb (human EAAT3) of 180 nM and a melting point of 115 °C.

Work on `CC(C)c1nccn1-c1cc(C(=O)NC(C)(C)C)cc(-c2ccc(Cl)cc2)c1` [Example 1, N-tert-Butyl-3-(4-chlorophenyl)-5-(2-propan-2-ylimidazol-1-yl)-benzamide] yielded a Kb (human EAAT3) of 180 nM.

In the case of `CC(C)(C)NC(=O)c1cc(-c2ccc(Cl)cc2)cc(-n2ccnc2)c1` [Example 2, N-tert-Butyl-3-(4-chlorophenyl)-5-imidazol-1-ylbenzamide], the Kb (human EAAT3) is reported as 230 nM.

For `Cc1nccn1-c1cc(C(=O)NC(C)(C)C)cc(-c2ccc(Cl)cc2)c1` [Example 3, N-tert-Butyl-3-(4-chlorophenyl)-5-(2-methylimidazol-1-yl)-benzamide], the Kb (human EAAT3) was 190 nM and the melting point was 220 °C.

Compound `CCc1nccn1-c1cc(C(=O)NC(C)(C)C)cc(-c2ccc(Cl)cc2)c1` [Example 4, N-tert-Butyl-3-(4-chlorophenyl)-5-(2-ethylimidazol-1-yl)-benzamide] has a Kb (human EAAT3) of 180 nM.

Work on `CC(C)(C)NC(=O)c1cc(-c2ccc(Cl)cc2)cc(-n2ccnc2C2CC2)c1` [Example 5, N-tert-Butyl-3-(4-chlorophenyl)-5-(2-cyclopropylimidazol-1-yl)-benzamide] yielded a Kb (human EAAT3) of 120 nM.

Work on `CC(C)c1nccn1-c1cc(C(=O)NC(C)(C)C)cc(-c2ccc(F)cc2)c1` [Example 6, N-tert-Butyl-3-(4-fluorophenyl)-5-(2-propan-2-ylimidazol-1-yl)-benzamide] yielded a Kb (human EAAT3) of 76 nM and a melting point of 224 °C.

Work on `CC(C)c1nccn1-c1cc(C(=O)NC(C)(C)C(F)(F)F)cc(-c2ccc(Cl)cc2)c1` [Example 7, 3-(4-Chlorophenyl)-5-(2-propan-2-ylimidazol-1-yl)-N-(1,1,1-trifluoro-2-methylpropan-2-yl)-benzamide] yielded a Kb (human EAAT3) of 200 nM and a melting point of 115.5 °C.

`CC(C)c1nccn1-c1cc(C(=O)NC(C)(C)C2CC2)cc(-c2ccc(Cl)cc2)c1` [Example 8, 3-(4-Chlorophenyl)-N-(2-cyclopropylpropan-2-yl)-5-(2-propan-2-ylimidazol-1-yl)-benzamide] showed a Kb (human EAAT3) of 230 nM and a melting point of 189 °C.

In the case of `CCc1nccn1-c1cc(C(=O)NC(C)(C)C2CC2)cc(-c2ccc(Cl)cc2)c1` [Example 9, 3-(4-Chlorophenyl)-N-(2-cyclopropylpropan-2-yl)-5-(2-ethylimidazol-1-yl)-benzamide], the Kb (human EAAT3) is reported as 220 nM and the melting point is reported as 183 °C.

For `CCc1nccn1-c1cc(C(=O)NC(C)(C)C)cc(-c2ccc(F)cc2)c1` [Example 10, N-tert-Butyl-3-(2-ethylimidazol-1-yl)-5-(4-fluorophenyl)-benzamide], the Kb (human EAAT3) was 110 nM and the melting point was 238 °C.

`Cc1nccn1-c1cc(C(=O)NC(C)(C)C2CC2)cc(-c2ccc(Cl)cc2)c1` [Example 11, 3-(4-Chlorophenyl)-N-(2-cyclopropylpropan-2-yl)-5-(2-methylimidazol-1-yl)-benzamide] showed a Kb (human EAAT3) of 170 nM and a melting point of 180 °C.

Compound `Cc1nccn1-c1cc(C(=O)NC(C)(C)C)cc(-c2ccc(F)cc2)c1` [Example 12, N-tert-Butyl-3-(4-fluorophenyl)-5-(2-methylimidazol-1-yl)-benzamide] has a Kb (human EAAT3) of 130 nM and a melting point of 208 °C.

In the case of `CC(C)(NC(=O)c1cc(-c2ccc(Cl)cc2)cc(-n2ccnc2C2CC2)c1)C1CC1` [Example 13, 3-(4-Chlorophenyl)-5-(2-cyclopropylimidazol-1-yl)-N-(2-cyclopropyl-propan-2-yl)-benzamide], the Kb (human EAAT3) is reported as 310 nM and the melting point is reported as 90 °C.

Compound `Cc1nccn1-c1cc(C(=O)NC(C)(C)C(F)(F)F)cc(-c2ccc(Cl)cc2)c1` [Example 14, 3-(4-Chlorophenyl)-5-(2-methylimidazol-1-yl)-N-(1,1,1-trifluoro-2-methylpropan-2-yl)-benzamide] has a Kb (human EAAT3) of 130 nM and a melting point of 199.5 °C.

Work on `CC(C)(NC(=O)c1cc(-c2ccc(Cl)cc2)cc(-n2ccnc2C2CC2)c1)C(F)(F)F` [Example 15, 3-(4-Chlorophenyl)-5-(2-cyclopropylimidazol-1-yl)-N-(1,1,1-trifluoro-2-methylpropan-2-yl)-benzamide] yielded a Kb (human EAAT3) of 150 nM and a melting point of 101.5 °C.

Compound `CC(C)(C)NC(=O)c1cc(-c2ccc(F)cc2)cc(-n2ccnc2C2CC2)c1` [Example 16, N-tert-Butyl-3-(2-cyclopropylimidazol-1-yl)-5-(4-fluorophenyl)-benzamide] has a Kb (human EAAT3) of 130 nM and a melting point of 250.5 °C.

`CC(C)c1nccn1-c1cc(C(=O)NC(C)(C)C2CC2)cc(-c2ccc(F)cc2)c1` [Example 17, N-(2-Cyclopropylpropan-2-yl)-3-(4-fluorophenyl)-5-(2-propan-2-ylimidazol-1-yl)-benzamide] showed a Kb (human EAAT3) of 120 nM and a melting point of 80 °C.

Work on `CCc1nccn1-c1cc(C(=O)NC(C)(C)C2CC2)cc(-c2ccc(F)cc2)c1` [Example 18, N-(2-Cyclopropylpropan-2-yl)-3-(2-ethylimidazol-1-yl)-5-(4-fluorophenyl)-benzamide] yielded a Kb (human EAAT3) of 170 nM and a melting point of 70 °C.

`Cc1nccn1-c1cc(C(=O)NC(C)(C)C2CC2)cc(-c2ccc(F)cc2)c1` [Example 19, N-(2-Cyclopropylpropan-2-yl)-3-(4-fluorophenyl)-5-(2-methylimidazol-1-yl)-benzamide] gave a Kb (human EAAT3) of 290 nM and a melting point of 184 °C.

Compound `CC(C)(NC(=O)c1cc(-c2ccc(F)cc2)cc(-n2ccnc2C2CC2)c1)C1CC1` [Example 20, 3-(2-Cyclopropylimidazol-1-yl)-N-(2-cyclopropylpropan-2-yl)-5-(4-fluorophenyl)-benzamide] has a Kb (human EAAT3) of 33 nM and a melting point of 83 °C.

`CC(C)c1nccn1-c1cc(C(=O)NC(C)(C)C)cc(-c2ccc(C(F)(F)F)cc2)c1` [Example 21, N-tert-Butyl-3-(2-propan-2-ylimidazol-1-yl)-5-[4-(trifluoromethyl)-phenyl]-benzamide] showed a Kb (human EAAT3) of 180 nM and a melting point of 96.5 °C.

Work on `Cc1ccc(-c2cc(C(=O)NC(C)(C)C)cc(-n3ccnc3C(C)C)c2)cc1F` [Example 22, N-tert-Butyl-3-(3-fluoro-4-methylphenyl)-5-(2-propan-2-ylimidazol-1-yl)-benzamide] yielded a Kb (human EAAT3) of 120 nM and a melting point of 98 °C.

In the case of `CC(C)c1nccn1-c1cc(C(=O)NC(C)(C)C)cc(-c2ccc(F)c(F)c2)c1` [Example 23, N-tert-Butyl-3-(3,4-difluorophenyl)-5-(2-propan-2-ylimidazol-1-yl)-benzamide], the Kb (human EAAT3) is reported as 150 nM and the melting point is reported as 91.5 °C.

Work on `CC(C)c1nccn1-c1cc(C(=O)NC(C)(C)C)cc(-c2ccc(Cl)c(F)c2)c1` [Example 24, N-tert-Butyl-3-(4-chloro-3-fluorophenyl)-5-(2-propan-2-ylimidazol-1-yl)-benzamide] yielded a Kb (human EAAT3) of 190 nM and a melting point of 98 °C.

— patent publication US10029989B2, “Imidazole derivatives” (Hoffmann-La Roche Inc., priority 2015, dated 2018)
